Reference: BindingDB's records for PubMed 34792334 (n/a, 2021)

Tests used:
[1] = target: T1, Alpha-ketoglutarate-dependent dioxygenase FTO (Homo sapiens, UniProt Q9C0B1); assay: Inhibition of FTO (unknown origin) demethylation activity using m6A7-Broccoli RNA as substrate incubated for 3 mins under shaking condition and measured after 2 hrs by fluorescence based analysis
[2] = target: T1, Alpha-ketoglutarate-dependent dioxygenase FTO; assay: Inhibition of FTO (unknown origin) demethylation activity

T1 sequence (Q9C0B1 whole entry): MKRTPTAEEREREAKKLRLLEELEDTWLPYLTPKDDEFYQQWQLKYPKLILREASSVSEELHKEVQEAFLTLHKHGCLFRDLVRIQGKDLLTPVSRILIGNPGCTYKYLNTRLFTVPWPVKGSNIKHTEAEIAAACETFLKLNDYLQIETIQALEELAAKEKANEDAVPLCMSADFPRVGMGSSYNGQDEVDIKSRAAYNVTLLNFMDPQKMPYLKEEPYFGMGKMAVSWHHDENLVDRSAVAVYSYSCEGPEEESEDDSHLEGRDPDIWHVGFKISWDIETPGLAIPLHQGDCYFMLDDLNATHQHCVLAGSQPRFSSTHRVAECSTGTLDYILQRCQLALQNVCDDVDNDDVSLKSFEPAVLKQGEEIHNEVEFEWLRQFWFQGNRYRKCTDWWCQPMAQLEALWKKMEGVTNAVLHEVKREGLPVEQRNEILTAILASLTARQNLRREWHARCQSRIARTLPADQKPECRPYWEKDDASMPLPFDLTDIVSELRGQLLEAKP

Compound | IC50 [1] | IC50 [2]
Nc1sc(-c2cncnc2)c2c1C(=O)c1ccccc1-2 | 1200 nM | 
CCOc1nc2ccccc2nc1C(=O)Nc1ccc(N(CC)CC)cc1 |  | 1200 nM
